The values that follow come from article PMC3601769 (Bioorganic & medicinal chemistry letters, 2013).

In the test the test system is tubulin (colchicine site). As to the kind of experiment: Inhibition of colchicine binding to tubulin.

Take `Fc1ccccc1Nc1nc(-c2ccccc2)no1` [DCP 10500060]: the “Inhibition of colchicine binding (% inhibition ± SD) at 5 μM inhibitor” value is “inactive”. Under `COc1ccc(OC)c(Nc2nc(-c3cccc(OC)c3OC)no2)c1` [DCP 10500070] stands “inactive”; under `CCOC(=O)c1cccc(Nc2nc(-c3ccc(OC)cc3)no2)c1` [DCP 10500035], “inactive”.
